Reference: patent US7700728B2, “Use of chimeric receptors in a screening assay for identifying agonists and antagonists of cell receptors” (Schering Corporation, priority 2005, dated 2010)

What was measured:
[1] = target: T1, chimeric TLR3/CD32a receptor (Homo sapiens, UniProt O15455); test: Effect of extracellular pH on calcium mobilization in U937 cells expressing chimeric TLR3/CD32a; format: cell-based; details: pH range 5.5-7.5
T1 construct: expressed in transfected cells; host or cells: U937 cells, transiently or stably transfected with pTLR3/CD32a (pMET7 vector)
T1 sequence (O15455 with tags, fused parts or gaps): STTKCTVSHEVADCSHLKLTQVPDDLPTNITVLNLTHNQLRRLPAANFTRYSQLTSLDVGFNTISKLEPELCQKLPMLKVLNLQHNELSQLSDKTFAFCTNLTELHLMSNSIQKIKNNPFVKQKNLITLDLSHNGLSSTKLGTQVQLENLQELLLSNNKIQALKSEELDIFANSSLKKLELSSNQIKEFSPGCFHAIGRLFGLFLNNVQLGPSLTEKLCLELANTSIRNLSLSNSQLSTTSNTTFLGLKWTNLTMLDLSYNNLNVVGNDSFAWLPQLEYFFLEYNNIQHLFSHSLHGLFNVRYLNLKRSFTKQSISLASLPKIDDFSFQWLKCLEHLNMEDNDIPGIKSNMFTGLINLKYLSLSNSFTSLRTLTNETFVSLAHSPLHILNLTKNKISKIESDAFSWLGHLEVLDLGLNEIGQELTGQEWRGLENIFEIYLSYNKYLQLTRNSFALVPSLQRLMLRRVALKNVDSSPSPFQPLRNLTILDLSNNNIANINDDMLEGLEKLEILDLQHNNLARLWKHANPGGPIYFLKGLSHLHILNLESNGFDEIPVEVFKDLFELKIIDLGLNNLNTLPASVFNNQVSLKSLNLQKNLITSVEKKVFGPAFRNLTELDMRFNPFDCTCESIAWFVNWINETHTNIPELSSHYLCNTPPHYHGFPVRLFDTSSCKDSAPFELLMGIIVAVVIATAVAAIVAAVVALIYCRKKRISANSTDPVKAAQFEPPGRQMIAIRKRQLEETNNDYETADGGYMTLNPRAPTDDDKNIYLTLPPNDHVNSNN
Source text: Wild type TLR3 has previously been described as an intracellular receptor, at least in dendritic cells (DC), and interaction with its ligand occurs in early endosomes. […] U937 cells expressing the chimeric human TLR3/CD32a receptor at the cell surface were used to investigate the effect of the extracellular pH on poly-IC-mediated calcium mobilization.

[2] = target: T1, chimeric TLR3/CD32a receptor; test: Calcium mobilization in U937 cells transiently transfected with pTLR3/CD32a; format: cell-based
Source text: (§1) The hematopoietic cell line U937 was used for further biological investigation because of the ability of this cell line to display calcium mobilization upon cross-linking of endogenous CD32a using anti-CD32a antibodies followed by secondary antibody (as detected by fluorimetry following loading of the cells with Indo-1 or Fluo-4). Thus, U937 cells express all of the cellular components required for calcium mobilization mediated through CD32a activation.
(§2) Transient transfection of the pTLR3/CD32a and pTLR2/CD32a expression vectors into U937 allowed high level cell surface expression of the chimeric molecule as detected with anti-TLR3 or anti-TLR2 antibodies, while no expression was observed on untransfected cells or cells transfected with the other chimeric vector.
Poly-IC, a synthetic double-stranded RNA ligand for TLR3, was then tested for its ability to stimulate the chimeric TLR3/CD32a receptor. Poly(I) (15, 30 and 40 mers) and poly(C) (15, 30 and 40 mers) (Ambion, Huntingdon, Cambridgeshire, U.K. and Invitrogen, Cergy Pontoise, France respectively) were annealed in equal proportions according to their size for 15 minutes at 95° C. Independently, fragmentation of high molecular weight poly-IC (>5000 bp) was performed by metal-induced hydrolysis as recommended by Affymetrix (High Wycombe, UK). Briefly, 200 μg poly-IC was incubated with 40 μl of 5×RNA fragmentation buffer (200 mM Tris-acetate, pH 8.1, 500 mM KOAc, 150 mM MgOAc) in a final volume of 200 μl, for 35 min at […]. Fragmented poly-IC (100-200 bp) was then allowed to reach room temperature before purification. The relative sizes of dsRNA fragments were examined by electrophoresis in 2% agarose gel.

[3] = tested on: chimeric TLR2/CD32a receptor; test: Calcium mobilization in untransfected U937 cells or cells transfected with pTLR2/CD32a (specificity control); format: cell-based, human
Source text: as §1, §2

PBMC = test: Cytokine induction in PBMC; format: cell-based
[4] = target: T1, chimeric TLR3/CD32a receptor; test: Calcium mobilization in U937 clones stably transfected with pTLR3/CD32a; format: cell-based
Source text: U937 cells were stably transfected with pTLR3/CD32a using co-transfection with an antibiotic-encoding plasmid and antibiotic selection followed by limiting dilution cloning. Clones were selected based on their cell surface expression level of TLR3. […] These clones expand very easily (up to 10^9 cells) and can be maintained for several months in culture without losing the expression of the chimeric receptor. […] Such stable clones provide a useful method for high through-put screening of candidate agents for the identification of TLR agonists and antagonists.

[5] = tested on: chimeric TLR3/CD32a receptor lacking two N-glycosylation sites (N196 and N247); test: NFκB luciferase reporter in HEK 293 cells co-transfected with chimeric TLR3/CD32a lacking two N-glycosylation sites; format: cell-based, human
Source text: In order to determine the role of glycosylation in ligand recognition by TLR3, a chimeric TLR3/CD32a receptor lacking two N-glycosylation sites (N196 and N247 as numbered at Genbank Acc. No. NP_003256) was generated by site-directed mutagenesis and co-transfected into HEK 293 cells with a reporter plasmid containing concensus NFκB sites which, when activated, directs the expression of firefly luciferase.

Sequence of chimeric TLR2/CD32a receptor (as listed by the source, change not shown): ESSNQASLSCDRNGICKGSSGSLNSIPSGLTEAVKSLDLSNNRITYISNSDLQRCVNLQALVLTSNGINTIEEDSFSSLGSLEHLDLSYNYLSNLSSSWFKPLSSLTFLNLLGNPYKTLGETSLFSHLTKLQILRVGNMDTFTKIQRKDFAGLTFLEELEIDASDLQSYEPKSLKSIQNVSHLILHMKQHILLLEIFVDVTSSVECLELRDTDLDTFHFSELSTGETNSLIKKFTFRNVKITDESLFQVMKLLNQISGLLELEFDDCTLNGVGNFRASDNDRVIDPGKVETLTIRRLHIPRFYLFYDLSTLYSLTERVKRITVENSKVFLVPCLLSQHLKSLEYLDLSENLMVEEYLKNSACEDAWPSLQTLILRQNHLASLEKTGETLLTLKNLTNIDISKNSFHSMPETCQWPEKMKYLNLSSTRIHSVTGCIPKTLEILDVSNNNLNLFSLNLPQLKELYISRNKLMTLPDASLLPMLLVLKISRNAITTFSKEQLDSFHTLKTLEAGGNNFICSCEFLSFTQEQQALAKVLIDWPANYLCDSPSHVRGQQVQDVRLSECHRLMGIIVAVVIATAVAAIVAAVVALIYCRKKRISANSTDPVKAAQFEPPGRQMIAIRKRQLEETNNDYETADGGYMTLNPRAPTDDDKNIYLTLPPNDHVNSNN

## poly-IC
[1]
  pH required for optimal response (calcium mobilization): 6.5
  pH that prevented biological response (calcium mobilization): ≥ 7.2
[2]; U937 transiently transfected with pTLR3/CD32a, fluorimetry with Indo-1 or Fluo-4
  calcium mobilization: immediate calcium mobilization of similar intensity to that induced by anti-TLR antibodies
[2]; dose response, transiently transfected U937
  dose required to detect biological response (calcium mobilization): 0.025 μg/ml
[2]; optimal concentration, second stimulation with poly-IC or anti-TLR3-mediated cross-linking
  response to a second stimulation after sequential stimulation: desensitization
[3]
  calcium mobilization: no calcium mobilization
PBMC
  dose required to detect cytokine induction: 2.5 µg/mL
[4]; stable U937 clones
  sensitivity in dose response (calcium mobilization): 10 to 30 ng/mL
[4]; stable U937 clones with cell surface expression of the chimeric receptor
  calcium mobilization: robust calcium mobilization
[5]
  activity on mutant TLR3 (NFκB luciferase reporter): completely inactive
